Legend:
[1] = test system: Human immunodeficiency virus 1; assay: Antiviral activity against wild type HIV-1 IIIB infected in human MT4 cells assessed as protection against virus-induced cytotoxicity incubated for 5 days by MTT assay; type: functional, organism-based; conditions: Human immunodeficiency virus 1, IIIB, MT4, 120 h
[2] = test system: Human immunodeficiency virus 1; assay: Antiviral activity against HIV-1 harboring RT L100I mutant infected in human MT4 cells assessed as protection against virus-induced cytotoxicity incubated for 5 days by MTT assay; type: functional, organism-based; conditions: Human immunodeficiency virus 1, MT4, 120 h
[3] = target: Human immunodeficiency virus type 1 reverse transcriptase (Human immunodeficiency virus 1, UniProt Q72547); assay: Inhibition of recombinant wild type p66/p51 HIV1 reverse transcriptase incubated for 40 mins by picogreen dye-based spectrofluorometric analysis
[4] = test system: Human immunodeficiency virus 1; assay: Antiviral activity against HIV-1 harboring K103N mutant infected in human MT4 cells assessed as protection against virus-induced cytotoxicity incubated for 5 days by MTT assay; type: functional, organism-based; conditions: Human immunodeficiency virus 1, MT4, 120 h
[5] = test system: Human immunodeficiency virus 1; assay: Antiviral activity against HIV-1 harboring RES056 mutant infected in human MT4 cells assessed as protection against virus-induced cytotoxicity incubated for 5 days by MTT assay; type: functional, organism-based; conditions: Human immunodeficiency virus 1, MT4, 120 h
[6] = Selectivity index, ratio of CC50 for cytotoxicity against human MT4 cells to EC50 for antiviral activity against HIV-1 IIIB infected in human MT4 cells; type: toxicity, cell-based; conditions: read-out: Ratio CC50/EC50
[7] = test system: Human immunodeficiency virus 1; assay: Antiviral activity against HIV-1 harboring Y181C mutant infected in human MT4 cells assessed as protection against virus-induced cytotoxicity incubated for 5 days by MTT assay; type: functional, organism-based; conditions: Human immunodeficiency virus 1, MT4, 120 h
[8] = test system: Human immunodeficiency virus 1; assay: Antiviral activity against HIV-1 harboring E138K mutant infected in human MT4 cells assessed as protection against virus-induced cytotoxicity incubated for 5 days by MTT assay; type: functional, organism-based; conditions: Human immunodeficiency virus 1, MT4, 120 h
[9] = Cytotoxicity against human MT4 cells assessed as reduction in cell viability measured after 5 days by MTT assay; type: toxicity, cell-based; conditions: time 5 day
[10] = test system: Human immunodeficiency virus 1; assay: Antiviral activity against HIV-1 harboring F227L/V106A double mutant infected in human MT4 cells assessed as protection against virus-induced cytotoxicity incubated for 5 days by MTT assay; type: functional, organism-based; conditions: Human immunodeficiency virus 1, MT4, 120 h
[11] = test system: Human immunodeficiency virus 1; assay: Antiviral activity against HIV-1 harboring Y188L mutant infected in human MT4 cells assessed as protection against virus-induced cytotoxicity incubated for 5 days by MTT assay; type: functional, organism-based; conditions: Human immunodeficiency virus 1, MT4, 120 h

Row | SMILES | EC50 [1] [nM] | EC50 [2] [nM] | IC50 [3] [nM] | EC50 [4] [nM] | EC50 [5] [nM] | selectivity ratio [6] | EC50 [7] [nM] | EC50 [8] [nM] | CC50 at 120 h [9] [nM] | EC50 [10] [nM] | EC50 [11] [nM]
1 | Cc1ncc(-c2cc(C)c(Nc3ccnc(Nc4ccc(C#N)cc4)n3)c(C)c2)cn1 | 1.6 | 68 | 46.7 | 7.8 | 641 | 2440 | 23 | 24 | 3900 |  | 
2 | Cc1cc(-c2cccc3cc[nH]c23)cc(C)c1Nc1ccnc(Nc2ccc(C#N)cc2)n1 | 23 |  | 60.5 | 271 |  | 44 |  | 124 | 1000 |  | 
3 | Cc1cc(-c2ccnc3ccccc23)cc(C)c1Nc1ccnc(Nc2ccc(C#N)cc2)n1 | 5.7 | 75 | 40.7 | 20 | 274 | 618 | 30 | 36 | 3500 | 1670 | 1340
4 | Cc1cnc(Nc2ccc(C#N)cc2)nc1Nc1c(F)cc(-c2ccco2)cc1F | 4.2 | 114 | 12 | 33 |  | 1920 | 187 | 11.2 | 8100 |  | 856
5 | Cc1cnc(Nc2ccc(C#N)cc2)nc1Nc1c(F)cc(-c2ccsc2)cc1F | 7.1 | 279 | 12 | 185 |  | 36700 | 306 | 49.5 | 261000 |  | 1290
6 | Cc1cc(-c2ccco2)cc(C)c1Nc1ccnc(Nc2ccc(C#N)cc2)n1 | 5.1 | 51 | 38.1 | 10 |  | 335 | 28 | 14 | 1700 |  | 150
7 | Cc1cnc(Nc2ccc(C#N)cc2)nc1Nc1c(F)cc(-c2cncc(C#N)c2)cc1F | 24 | 1880 | 271 | 135 |  | 2080 | 1410 | 86 | 50000 |  | > 2000
8 | Cc1cnc(Nc2ccc(C#N)cc2)nc1Nc1c(F)cc(-c2ccoc2)cc1F | 5.7 | 228 | 8.4 | 48 |  | 742 | 150 | 12.3 | 4200 |  | 1340
9 | Cc1cnc(Nc2ccc(C#N)cc2)nc1Nc1c(F)cc(-c2cncc(C(F)(F)F)c2)cc1F | 201 | > 2000 | 857 | 631 |  | 41 | > 2000 | 482 | 8200 |  | > 2000
10 | Cc1cnc(Nc2ccc(C#N)cc2)nc1Nc1c(F)cc(-c2cc(F)nc(F)c2)cc1F | 11 | 1730 | 55 | 117 |  | 9570 | 285 | 66 | 103000 |  | > 2000
11 | Cc1cc(-c2ccc3cc[nH]c3c2)cc(C)c1Nc1ccnc(Nc2ccc(C#N)cc2)n1 | 21 | 577 | 53.4 | 209 |  | 275 | 497 | 139 | 5800 |  | 
12 | Cc1cc(-c2cc(C)c(Nc3ccnc(Nc4ccc(C#N)cc4)n3)c(C)c2)ccn1 | 1.7 | 44 | 35.7 | 5.9 | 225 | 2880 | 17 | 11 | 4900 | 562 | 229
13 | Cc1cc(-c2cc(F)nc(F)c2)cc(C)c1Nc1ccnc(Nc2ccc(C#N)cc2)n1 | 3.6 | 91 | 45.6 | 13 | 620 | 1740 | 47 | 45 | 6300 | 859 | 
14 | Cc1csc(-c2cc(C)c(Nc3ccnc(Nc4ccc(C#N)cc4)n3)c(C)c2)c1 | 11 | 231 | 56 | 50 |  | 3060 | 116 | 43 | 34000 |  | 941
15 | Cc1ccc(-c2cc(C)c(Nc3ccnc(Nc4ccc(C#N)cc4)n3)c(C)c2)s1 | 11 | 249 | 43.8 | 57 |  | 2570 | 179 | 47 | 28000 |  | 1280
16 | Cc1cnc(Nc2ccc(C#N)cc2)nc1Nc1c(F)cc(-c2ccncc2)cc1F |  | 35 | 12 | 5.4 |  |  | 22 | 9.2 |  |  | 258
17 | Cc1cnc(Nc2ccc(C#N)cc2)nc1Nc1c(F)cc(-c2ccnc(F)c2)cc1F | 3.7 | 105 | 36 | 20.9 |  | 45200 | 74.5 | 17.9 | 167000 |  | > 2000
18 | Cc1cnc(Nc2ccc(C#N)cc2)nc1Nc1c(F)cc(-c2cncnc2)cc1F | 16 | > 916 | 280 | 88 |  | 59 | > 916 | 87 | 900 |  | > 916
19 | Cc1cc(-c2cccs2)cc(C)c1Nc1ccnc(Nc2ccc(C#N)cc2)n1 | 3.5 | 52 | 29 | 13 | 853 | 2850 | 43 | 15 | 10000 | 847 | 232
20 | Cc1cc(-c2ccnc(C(F)(F)F)c2)cc(C)c1Nc1ccnc(Nc2ccc(C#N)cc2)n1 | 6.6 | 231 | 68.5 | 37 |  | 923 | 128 | 47 | 6100 |  | 
21 | Cc1cc(-c2cncnc2)cc(C)c1Nc1ccnc(Nc2ccc(C#N)cc2)n1 | 1.7 | 113 | 343 | 10 | 588 | 4020 | 48 | 36 | 6800 |  | 
22 | Cc1cnc(Nc2ccc(C#N)cc2)nc1Nc1c(F)cc(-c2ccc(C#N)nc2)cc1F | 1.6 | 52 | 22 | 11 |  | 37500 | 35 | 8.5 | 62000 |  | 2380
23 | Cc1cnc(Nc2ccc(C#N)cc2)nc1Nc1c(F)cc(-c2cccnc2)cc1F | 14 | > 1090 | 197 | 111 |  | 80 | > 1090 | 59 | 1100 |  | > 1090
24 | Cc1cc(-c2cc(C)c(Nc3ccnc(Nc4ccc(C#N)cc4)n3)c(C)c2)cc(C)n1 | 6.2 | 260 | 66.7 | 33 |  | 375 | 85 | 58 | 2300 | 1720 | 1840
25 | Cc1cc(-c2cnc(C(F)(F)F)nc2)cc(C)c1Nc1ccnc(Nc2ccc(C#N)cc2)n1 | 5.2 | 98 | 64 | 8.4 | 429 | 951 | 29.8 | 37 | 4900 |  | 1260
26 | Cc1cc(-c2cc3ccccc3s2)cc(C)c1Nc1ccnc(Nc2ccc(C#N)cc2)n1 | 36 | 713 | 61.5 | 170 |  | 3780 | 431 | 206 | 138000 | 206 | 2820
27 | Cc1cnc(Nc2ccc(C#N)cc2)nc1Nc1c(F)cc(-c2cccs2)cc1F | 6 | 176 | 12 | 51 |  | 1330 | 241 | 12 | 8000 |  | 980
28 | O=C1Nc2ccc(Cl)cc2[C@@](C#CC2CC2)(C(F)(F)F)O1 [EFAVIRENZ] |  | 10.7 |  |  | 560 |  |  |  | > 6330 | 410 | 
29 | Cc1cc(C#N)cc(C)c1Oc1nc(Nc2ccc(C#N)cc2)nc(N)c1Br [ETRAVIRINE] |  | 44.7 |  |  | 101 |  |  |  | > 4600 | 31 | 
30 | Cc1ccnc2c1NC(=O)c1cccnc1N2C1CC1 [NEVIRAPINE] |  |  |  |  |  |  |  |  | > 15000 |  | > 2000

Source: ChEMBL document CHEMBL5042530, “Discovery of Novel Pyridine-Dimethyl-Phenyl-DAPY Hybrids by Molecular Fusing of Methyl-Pyrimidine-DAPYs and Difluoro-Pyridinyl-DAPYs: Improving the Druggability toward High Inhibitory Activity, Solubility, Safety, and PK” (J Med Chem, 2022)
